In US11059842B2, “Monosaccharide amine and 3-nitro-2-phenyl-2H-chromene based inhibitors of glucose kinases” (UNIVERSITY OF SOUTH CAROLINA, priority 2019, dated 2021):
“And” between values parts separate entries of the source, which are not always exact repeats. Equal entries are not always repeated. Where two headings read alike, the source gives them in different places.

What was measured:
[1] = molecular target: T1, TcGlcK (Trypanosoma cruzi (strain CL Brener), UniProt Q4E4E1); experiment: Primary assay screen of TcGlcK, normalized percent inhibition (Example 2); assay type: biochemical; settings: triplicate
Procedure: (§1) Primary assay screens of TcGlcK, LbGlcK, and HsHxKIV against the 3-nitro-2-phenyl-2H-chromene-based inhibitors compound nos. 19-22 were carried out. Compound 1, Benzoyl glucosamine (BENZ-GlcN or simply “BENZ”) and carboxybenzyl glucosamine (CBZ-GlcN or simply “CBZ”) were both used as controls due to their known inhibition against TcGlcK. LbGlcK was chosen to be tested against these compounds due to its 44% protein sequence similarity to TcGlcK.
(§2) All screens were done in triplicate and were analyzed using normalized percent inhibition (NPI) calculations. NPI calculations rely on positive and negative assay controls within the screen to account for any fluctuations in the fluorescence measurements.
(§3) The NPI for a compound to be considered a “hit” against TcGlcK required a value exceeding 60.5% inhibition in the primary screen. All four compounds ([…]) qualified as hits based off of this parameter. LbGlcK required compounds to be above 12.6% inhibition in its primary screen; all four compounds were also qualified as hits.

[2] = system: T. brucei; experiment: T. brucei in vitro screen; assay type: cell-based; settings: Trypanosoma brucei; average; concentrations up to 10 μM, N=3
Procedure: Compounds 19-31 were screened against T. brucei. The single dose in vitro study included administration of the compounds in increasing concentrations up to 10 μM (N=3 for each compound concentration value). Media and T. bricei+0.5% SDS were used as control.

[3] = molecular target: T2, HsHxKIV (Homo sapiens (Human), UniProt P35557); experiment: Primary assay screen of HsHxKIV, normalized percent inhibition (Example 2); assay type: biochemical; settings: triplicate
Procedure: as §1, §2, §3

[4] = molecular target: T2, HsHxKIV; experiment: HsHxKIV Michaelis-Menten kinetics; assay type: biochemical; settings: substrate; triplicate runs
Procedure: (§4) D-Glucose was also tested as a control with alternative substrates. The protein expression work for TcGlcK and HsHxKIV were each made possible through the E. coli strain BL21(DE3) system. Purification of each enzyme was performed through cobalt-NTA chromatography followed by size-exclusion chromatography; assessment of purity was performed by SDS-PAGE. In enzymatic assays, a time-optimum (TOPT) was determined to be 120 seconds for TcGlcK and 600 seconds for HsHxKIV; all assays were run at room temperature. A general reaction scheme included a first reaction in which the monosaccharide, ATP, and Mg^2+ react with the enzyme, e.g., TcGlcK, forming a hexose-phosphate and ADP. In a second reaction, hexose-phosphate with the assistance of glucose-6-phosphate dehydrogenase (G6PDH) and NADP^+ was converted to the lactone form of the hexose-phosphate and NADPH. Fluorescence of NADPH was monitored using a fluorescence microplate reader with […] wavelengths of 340 nm and 485 nm, respectively.
FIG. 4 and FIG. 5 present typical Michaelis-Menten enzyme kinetic plots for D-glucose. […] Michaelis-Menten constant (KM) values, which were used as the set final assay concentrations of substrates D-glucose and ATP for the primary screens, were determined for both TcGlcK and HsHxKIV in triplicate runs. […]

[5] = molecular target: T1, TcGlcK; experiment: TcGlcK Michaelis-Menten kinetics and substrate range; assay type: biochemical; settings: substrate; triplicate runs
Procedure: as §4
(§5) FIG. 4 and FIG. 5 present typical Michaelis-Menten enzyme kinetic plots for D-glucose. As shown, the NADP^+ to NADPH turnover rate is a function of [D-glucose] & [ATP] for TcGlcK (FIG. 4) and HsHxKIV (FIG. 5) absent inhibition. Michaelis-Menten constant (KM) values, which were used as the set final assay concentrations of substrates D-glucose and ATP for the primary screens, were determined for both TcGlcK and HsHxKIV in triplicate runs. The KM values for TcGlcK with respect to D-glucose and ATP were 0.40 mM and 0.34 mM, respectively. The KM values for HsHxKIV with respect to D-glucose and ATP were 43 mM and 0.20 mM, respectively.
All phosphorylated hexoses were shown getting converted into their corresponding products by G6PDH, in abundant quantities through a 30-second time frame. This permitted the standard TcGlcK […] assay, which was timed for […], to be used as an assay to analyze alternative substrates.

[6] = system: T. cruzi (Tulahuen strain) infective form (trypomastigote and amastigote life stages) co-cultured in NIH-3T3 fibroblasts; settings: literature / previously measured values; infective form in NIH-3T3 fibroblasts; cited from earlier work
[7] = molecular target: Trypanosoma cruzi glucokinase (TcGlcK) (Trypanosoma cruzi (strain CL Brener), UniProt Q4E4E1); assay type: biochemical; settings: for TcGlcK Inh20 (%): percentage of inhibition at 20 μM of the compound, N = 1
Procedure: as §4, with “In enzymatic assays, a time-optimum (TOPT) was determined to be 120 seconds for TcGlcK and 600 seconds for HsHxKIV; all assays were run at room temperature.” left out
Michaelis-Menten constant (KM) values, which were used as the set final assay concentrations of substrates D-glucose and ATP for the primary screens, were determined for both TcGlcK and HsHxKIV in triplicate runs. […]
The cutoff percentage was calculated by using normalized percent inhibition that took into consideration the positive and negative controls of the fluorescence readout from a fluorescence microplate reader. In addition, an unconfirmed hit was selected if the activity measurement was three standard deviations away from the mean of the positive controls.

[8] = system: glucose-6-phosphate dehydrogenase (G6PDH); experiment: G6PDH confirmatory assay (coupling enzyme counter-screen); assay type: biochemical; settings: 20 μM compound; quadruplicate
Procedure: The 16 compounds showing substantial inhibition against TcGlcK at compound concentrations of 20 μM were then examined in a confirmatory assay in which the amino sugar analogues were at a concentration of 20 μM and were tested against the assay's only coupling enzyme, G6PDH, to verify enzyme activity; the assay was performed in quadruplicate. […] These confirmed hits included representatives from all three monosaccharide scaffolds tested (i.e., D-GlcN, D-ManN, and D-GalN).

[9] = molecular target: Homo sapiens hexokinase IV (HsHxKIV) (Homo sapiens (Human), UniProt P35557); experiment: HsHxKIV enzyme-inhibition screening assay (Example 1); assay type: biochemical; settings: 20 μM compound; N = 1
Procedure: as §4, §5

[10] = system: T. cruzi (Tulahuen strain) infective form (trypomastigote and amastigote life stages) co-cultured in NIH-3T3 fibroblasts; experiment: T. cruzi infective form growth inhibition in NIH-3T3 fibroblasts; assay type: cell-based, Trypanosoma cruzi; settings: Tulahuen strain infective form in NIH-3T3 fibroblasts; N = 3 (Amphotericin B control: 6 replicates)
Procedure: The curve and the IC50 were calculated from measurements determined in triplicate and expressed as percent growth inhibition of the T. cruzi parasite infection of mammalian cells.
Compounds were further screened against the T. cruzi (Tulahuen strain) infective form (trypomastigote and amastigote life stages) co-cultured in NIH-3T3 fibroblasts to establish IC50 values. Assays were performed in triplicate.
The single dose in vitro study included administration of the compounds in 80 μM inhibitor concentrations (N=3). Amphotericin B was used as a control.

[11] = molecular target: T1, TcGlcK; assay type: biochemical
Procedure: as §4, with “In enzymatic assays, a time-optimum (TOPT) was determined to be 120 seconds for TcGlcK and 600 seconds for HsHxKIV; all assays were run at room temperature.” left out

[12] = molecular target: T1, TcGlcK; settings: from D'Antonio, et al (2015); cited from earlier work
[13] = system: Leishmania braziliensis glucokinase (LbGlcK); experiment: Primary assay screen of LbGlcK, normalized percent inhibition (Example 2); assay type: biochemical; settings: triplicate
Procedure: as §1, §2, §3

T1 sequence (Q4E4E1 1-376): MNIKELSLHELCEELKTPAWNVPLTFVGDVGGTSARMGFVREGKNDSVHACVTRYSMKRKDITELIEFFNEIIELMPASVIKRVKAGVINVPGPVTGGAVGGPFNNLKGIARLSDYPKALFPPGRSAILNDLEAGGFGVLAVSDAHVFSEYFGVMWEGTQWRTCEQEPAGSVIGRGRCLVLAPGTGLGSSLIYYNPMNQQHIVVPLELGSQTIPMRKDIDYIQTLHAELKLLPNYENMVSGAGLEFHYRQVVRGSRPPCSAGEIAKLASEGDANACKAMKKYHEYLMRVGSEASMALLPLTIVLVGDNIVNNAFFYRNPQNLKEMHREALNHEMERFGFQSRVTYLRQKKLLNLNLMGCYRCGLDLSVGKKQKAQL
Chain of Trypanosoma cruzi glucokinase (TcGlcK) (Q4E4E1 1-376): as above
T2 sequence (P35557 whole entry): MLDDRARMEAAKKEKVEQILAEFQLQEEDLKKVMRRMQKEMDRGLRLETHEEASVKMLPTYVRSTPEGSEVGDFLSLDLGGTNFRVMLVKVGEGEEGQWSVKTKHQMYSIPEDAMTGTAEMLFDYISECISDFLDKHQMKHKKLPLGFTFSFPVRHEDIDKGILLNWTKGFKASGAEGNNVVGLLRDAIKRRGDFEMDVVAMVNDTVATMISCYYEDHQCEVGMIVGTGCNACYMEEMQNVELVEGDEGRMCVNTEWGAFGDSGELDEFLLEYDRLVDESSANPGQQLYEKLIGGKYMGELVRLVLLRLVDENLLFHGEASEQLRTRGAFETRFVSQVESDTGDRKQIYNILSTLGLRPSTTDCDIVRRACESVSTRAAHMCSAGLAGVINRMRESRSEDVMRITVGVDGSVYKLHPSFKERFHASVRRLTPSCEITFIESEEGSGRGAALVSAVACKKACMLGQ
Chain of Homo sapiens hexokinase IV (HsHxKIV) (P35557 whole entry): as above

O=[N+]([O-])C1=Cc2cc(Br)ccc2O[C@H]1c1ccccc1Cl [Compound 20]
NPI (%) TcGlcK [1]: 89.5%
IC50 [2]: 0.862 µM
NPI (%) HsHxKIV [3]: 64.7%

Nc1ncnc2c1ncn2[C@@H]1O[C@H](COP(=O)(O)OP(=O)(O)OP(=O)(O)O)[C@@H](O)[C@H]1O [ATP]
Km [4]: 200 µM
Km [5]: 340 µM

O=[N+]([O-])C1=Cc2cc(Br)cc(Br)c2O[C@H]1c1c(Cl)cccc1Cl [Compound 19]
NPI (%) TcGlcK [1]: 62.3%
IC50 [2]: 0.902 µM
NPI (%) HsHxKIV [3]: 82.1%

O=C(Cn1ccnc1[N+](=O)[O-])NCc1ccccc1 [benznidazole]
IC50 [6]: 1.12 ± 0.01 µM

O=[N+]([O-])C1=Cc2ccccc2O[C@H]1c1ccccc1Cl [Compound 21]
NPI (%) TcGlcK [1]: 54.7%
NPI (%) HsHxKIV [3]: 51.8%

O=C(N[C@H]1C(O)O[C@H](CO)[C@@H](O)[C@@H]1O)c1cc2ccccc2o1 (some centres unmarked) [Compound 5]
TcGlcK Inh20 (%) [7]: 31% and 31.2%
G6PDH Inh20 (%) [8]: 0.0 ± 0.0%
HsHxKIV Inh20(%) [9]: 25%
IC50 [10]: 27.2 µM
mode of TcGlcK inhibition [11]: competitive inhibition
Ki ([11]; N = 3): 139 ± 35 µM

O=C(N[C@H]1C(O)O[C@H](CO)[C@@H](O)[C@@H]1O)c1ccccc1 (some centres unmarked) [Compound 1, Benzoyl glucosamine]
TcGlcK Inh20:HsHxKIV Inh20 ratio ([7]; higher values indicate more selective towards TcGlcK): 1.65
TcGlcK Inh20 (%) [7]: 65% and 64.7%
Ki [12]: 32 µM
G6PDH Inh20 (%) [8]: 0.5 ± 1.0%
NPI (%) TcGlcK [1]: 100%
HsHxKIV Inh20(%) [9]: 39%
NPI (%) LbGlcK [13]: 27.2%
Ki stronger than compound 5 by magnitude ([11]; relative to compound 5): 4.3 fold
NPI (%) HsHxKIV [3]: 9.30%

O=C(NC1C(O)OC(CO)C(O)C1O)OCc1ccccc1 (centres unmarked) [CBZ-GlcN, carboxybenzyl glucosamine, reference compound]
TcGlcK Inh20 (%) [7]: 92%
NPI (%) TcGlcK [1]: 100%
NPI (%) HsHxKIV [3]: 15.0%
